The source of these data is patent US9650339B2, “Inhibitors of histone demethylases” (Gilead Sciences, Inc., priority 2013, dated 2017).

As usually defined, the pIC50 is −log10 of the IC50, conventionally taken in molar units.

Type in all cases: biochemical
For one test, the target named is T1, KDM3A (JMJD1A) (Homo sapiens, UniProt Q9Y4C1).
T1 construct: 2-end; purchased BPS Bioscience, US; host or cells: Bac (baculovirus system)
T1 sequence (Q9Y4C1 2-1321 limits assumed): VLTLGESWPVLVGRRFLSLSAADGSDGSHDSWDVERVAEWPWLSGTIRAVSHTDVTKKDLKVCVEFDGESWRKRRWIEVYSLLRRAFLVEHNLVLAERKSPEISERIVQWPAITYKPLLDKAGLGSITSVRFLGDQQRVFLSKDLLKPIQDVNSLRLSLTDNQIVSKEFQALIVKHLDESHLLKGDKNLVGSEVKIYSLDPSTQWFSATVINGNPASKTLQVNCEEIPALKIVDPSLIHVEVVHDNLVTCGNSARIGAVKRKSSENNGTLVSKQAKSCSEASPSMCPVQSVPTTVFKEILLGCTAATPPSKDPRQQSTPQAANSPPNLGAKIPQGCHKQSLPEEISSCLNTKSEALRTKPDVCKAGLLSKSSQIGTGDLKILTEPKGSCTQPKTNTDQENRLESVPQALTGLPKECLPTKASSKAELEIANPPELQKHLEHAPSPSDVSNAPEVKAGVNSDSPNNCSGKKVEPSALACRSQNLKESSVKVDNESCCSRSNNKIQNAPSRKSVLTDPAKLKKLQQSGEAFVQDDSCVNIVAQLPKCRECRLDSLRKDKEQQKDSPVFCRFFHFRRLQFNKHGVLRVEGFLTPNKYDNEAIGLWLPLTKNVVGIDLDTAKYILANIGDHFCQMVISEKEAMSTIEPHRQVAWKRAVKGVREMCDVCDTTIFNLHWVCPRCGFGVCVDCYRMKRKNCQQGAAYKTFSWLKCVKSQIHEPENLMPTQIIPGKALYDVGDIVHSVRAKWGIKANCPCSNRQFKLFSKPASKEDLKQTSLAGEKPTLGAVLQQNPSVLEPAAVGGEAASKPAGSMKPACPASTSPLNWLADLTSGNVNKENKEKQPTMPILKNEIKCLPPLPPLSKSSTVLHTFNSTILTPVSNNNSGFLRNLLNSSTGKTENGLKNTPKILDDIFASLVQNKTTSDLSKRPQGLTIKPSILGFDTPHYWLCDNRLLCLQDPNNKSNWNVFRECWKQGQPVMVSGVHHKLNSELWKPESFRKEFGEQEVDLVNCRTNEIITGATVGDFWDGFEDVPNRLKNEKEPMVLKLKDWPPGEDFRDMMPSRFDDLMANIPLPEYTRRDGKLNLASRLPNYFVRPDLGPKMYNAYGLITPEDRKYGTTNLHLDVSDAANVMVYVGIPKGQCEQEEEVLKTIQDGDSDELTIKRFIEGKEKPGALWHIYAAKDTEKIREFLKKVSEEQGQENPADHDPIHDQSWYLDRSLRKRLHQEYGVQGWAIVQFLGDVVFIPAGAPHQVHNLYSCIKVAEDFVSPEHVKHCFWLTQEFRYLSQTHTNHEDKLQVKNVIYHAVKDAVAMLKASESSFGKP
The experiment in a line: Histone lysine demethylase AlphaLISA assay, KDM3A. To be noted: read-out: KDM3 A HDME Inhibition IC50. The protocol: (§1) Assays are performed analogously to the protocol described by PerkinElmer (Roy et al. PerkinElmer Technical Note: AlphaLISA #12, April 2011)
Enzymes are dissolved in enzyme buffer and incubated for 10 min before being added to 3% DMSO solutions of compounds in enzyme buffer. Incubated for another 10 minutes, before substrate solution is added and the reaction mixture is incubated at room temperature. 10 μL acceptor beads, suspended in Epigenetic Buffer (Perkin Elmer AL008) from stock, are added and the suspension is incubated in the dark at room temperature, before a suspension of streptavidin donor beads (Perkin Elmer 6760002) in Epigenetic Buffer is added. After incubation at room temperature in the dark the plates are read. […]
BK9M2: Biotin-ARTKQTAR(KMe2)STGGKAPRKQ-NH2 (AnaSpec 64359) […]
(§2) Substrate Solution: Substrate, 25 μM L-Asc, and 10 μM α-KG in Buffer A.
Background: In Alpha technology, singlet oxygen from a donor bead excites a nearby acceptor bead.

Another test concerns the target T2, KDM4A (JMJD2A) (Homo sapiens, UniProt O75164).
T2 construct: 1-350; purchased BPS Bioscience, US; host or cells: E. coli
T2 sequence (O75164 1-350): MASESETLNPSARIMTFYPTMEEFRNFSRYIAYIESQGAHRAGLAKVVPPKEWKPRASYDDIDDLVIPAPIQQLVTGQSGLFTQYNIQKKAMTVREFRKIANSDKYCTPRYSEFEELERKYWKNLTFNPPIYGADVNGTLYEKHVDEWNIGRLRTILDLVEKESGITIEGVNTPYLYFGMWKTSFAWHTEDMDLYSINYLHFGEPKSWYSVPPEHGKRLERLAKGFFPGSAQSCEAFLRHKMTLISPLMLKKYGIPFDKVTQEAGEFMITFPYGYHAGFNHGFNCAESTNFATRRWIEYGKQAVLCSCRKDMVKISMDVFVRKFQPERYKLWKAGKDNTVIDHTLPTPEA
The experiment in a line: Histone lysine demethylase AlphaLISA assay, KDM4A. To be noted: read-out: KDM4A HDME Inhibition IC50. The protocol:
as §1
(§3) Enzymes are dissolved in enzyme buffer and incubated for 10 min before being added to 3% DMSO solutions of compounds in enzyme buffer. Incubated for another 10 minutes, before substrate solution is added and the reaction mixture is incubated at room temperature. 10 μL acceptor beads, suspended in Epigenetic Buffer (Perkin Elmer AL008) from stock, are added and the suspension is incubated in the dark at room temperature, before a suspension of streptavidin donor beads (Perkin Elmer 6760002) in Epigenetic Buffer is added. After incubation at room temperature in the dark the plates are read.
(§4) BK9M3: Biotin-ARTKQTAR(KMe3)STGGKAPRKQ-NH2 (Caslo, Denmark) […]
as §2

Another test addresses T3, KDM4B (JMJD2B) (Homo sapiens, UniProt O94953).
T3 construct: 2-500; purchased BPS; host or cells: Bac (baculovirus system)
T3 sequence (O94953 2-500): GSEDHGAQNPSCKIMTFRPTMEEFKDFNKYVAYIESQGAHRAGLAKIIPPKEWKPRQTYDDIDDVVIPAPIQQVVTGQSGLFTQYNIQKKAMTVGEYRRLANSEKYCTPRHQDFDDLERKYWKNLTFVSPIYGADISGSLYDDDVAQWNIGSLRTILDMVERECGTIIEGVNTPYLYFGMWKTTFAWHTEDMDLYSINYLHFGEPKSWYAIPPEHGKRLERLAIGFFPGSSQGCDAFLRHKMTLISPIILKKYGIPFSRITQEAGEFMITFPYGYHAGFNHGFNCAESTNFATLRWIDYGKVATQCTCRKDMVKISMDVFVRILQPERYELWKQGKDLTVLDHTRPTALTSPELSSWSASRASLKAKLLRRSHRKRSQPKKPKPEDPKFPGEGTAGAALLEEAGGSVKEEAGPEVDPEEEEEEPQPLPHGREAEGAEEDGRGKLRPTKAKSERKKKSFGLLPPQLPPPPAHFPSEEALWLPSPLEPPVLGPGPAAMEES
The test is described as follows: Histone lysine demethylase AlphaLISA assay, KDM4B. Particulars: read-out: KDM4B HDME Inhibition IC50. The protocol:
as §1, §3, §4, §2

pIC50: −log10 of the molar value. Where only a bound is given, the exact number is not on record here.

On to `O=Cc1ccnc(CNCC(=O)N2CCC(Cc3ccccc3)CC2)c1` [Compound 106, 2-({[2-(4-benzylpiperidin-1-yl)-2-oxoethyl]-amino}methyl)-pyridine-4-carbaldehyde], for which the pIC50 was below 5.60 on KDM3A (JMJD1A), 5.60 to 6.60 at KDM4A (JMJD2A) and above 6.60 on KDM4B (JMJD2B).

`CN(C)C/C=C/CNCc1cc(C=O)ccn1` [Compound 98, 2-({[(2E)-4-(dimethylamino)but-2-en-1-yl]amino}-methyl)pyridine-4-carbaldehyde]: the negative-log IC50 (pIC50) on KDM3A (JMJD1A), at KDM4A (JMJD2A) and at KDM4B (JMJD2B) was below 5.60 throughout.

For `CCN(CC)CCCCNCc1cc(C2NCCN2C)ccn1` (stereo not drawn) [Compound 65, [4-(diethylamino)-butyl]({[4-(1-methylimidazolidin-2-yl)pyridin-2-yl]methyl})amine], the pIC50 at KDM3A (JMJD1A), on KDM4A (JMJD2A) and on KDM4B (JMJD2B) was below 5.60 each time.

On to `COc1ccccc1CN1CCC(NC(=O)CNCc2cc(CN)ccn2)CC1` [Compound 9, 2-({[4-(aminomethyl)pyridin-2-yl]methyl}amino)-N-{1-[(2-methoxyphenyl)methyl]-piperidin-4-yl}acetamide], for which the pIC50 on KDM3A (JMJD1A), on KDM4A (JMJD2A) and on KDM4B (JMJD2B) was below 5.60 in each case.

In the case of `CCN(CC)CCCCN(Cc1cc(CNC(=O)C(F)(F)F)ccn1)C(=O)C(F)(F)F` [Compound 6, N-[4-(diethylamino)butyl]-- 2,2,2-trifluoro-N-({4-[(trifluoroacetamido)-methyl]pyridin-2-yl}methyl)acetamide], the values for the pIC50 at KDM3A (JMJD1A), at KDM4A (JMJD2A) and at KDM4B (JMJD2B) were below 5.60, 5.60 to 6.60 and above 6.60, respectively.

Take `CNC(C#N)c1ccnc(CNCCCN(C)C)c1` (stereo not drawn) [Compound 24, 2-[2-({[3-(dimethylamino)propyl]-amino}methyl)pyridin-4-yl]-2-(methylamino)-acetonitrile]: the values for the pIC50 on KDM3A (JMJD1A), on KDM4A (JMJD2A) and on KDM4B (JMJD2B) were below 5.60, 5.60 to 6.60 and above 6.60, respectively.

For `CC(C#N)NCc1ccnc(CNCCCN(C)C)c1` (stereo not drawn) [Compound 22, 2-({[2-({[3-(dimethylamino)propyl]-amino}methyl)pyridin-4-yl]methyl}amino)-propanenitrile], the pIC50 was below 5.60 on KDM3A (JMJD1A), below 5.60 on KDM4A (JMJD2A) and 5.60 to 6.60 on KDM4B (JMJD2B).

`CN(C)CCC/N=C/c1ccnc(CNCCCN(C)C)c1` [Compound 37, [3-(dimethylamino)propyl]-({4-[{[3-(dimethylamino)propyl]-imino}methyl]pyridin-2-yl}methyl)amine]: the results for the pIC50 at KDM3A (JMJD1A), at KDM4A (JMJD2A) and at KDM4B (JMJD2B) were below 5.60, below 5.60 and 5.60 to 6.60, respectively.

Turning to `CN(C)CCCCCNCc1cc(CN)ccn1` [Compound 8, [2-({[5-(dimethylamino)pentyl]-amino}methyl)pyridin-4-yl]methanamine], the pIC50 at KDM3A (JMJD1A), on KDM4A (JMJD2A) and at KDM4B (JMJD2B) was below 5.60 in each case.

`CN(C)CC1CCC(CNCc2cc(/C=N/C3CC3)ccn2)CC1` (stereo not drawn) [Compound 46, N-[(2-{[({4-[(dimethylamino)-methyl]cyclohexyl}-methyl)amino]-methyl}pyridin-4-yl)methylidene]-cyclopropanamine]: the pIC50 on KDM3A (JMJD1A) was below 5.60; at KDM4A (JMJD2A), 5.60 to 6.60; on KDM4B (JMJD2B), 5.60 to 6.60.

As to `c1ccc(CN2CCC[C@H]2CNCc2cc(CNCC3CC3)ccn2)cc1` [Compound 16, {[(2S)-1-benzylpyrrolidin-2-yl]methyl}[(4-{[(cyclopropylmethyl)-amino]methyl}pyridin-2-yl)methyl]amine], the pIC50 at KDM3A (JMJD1A), on KDM4A (JMJD2A) and on KDM4B (JMJD2B) was below 5.60 in each case.

`CCN(CC)CCCCNC(=O)CNCc1cc(/C=N/C2CC2)ccn1` [Compound 48, 2-[({4-[N-cyclopropyl-carboximidoyl]pyridin-2-yl}methyl)amino]-N-[4-(diethylamino)-butyl]acetamide]: the pIC50 at KDM3A (JMJD1A) is below 5.60; on KDM4A (JMJD2A), above 6.60; on KDM4B (JMJD2B), above 6.60.

Consider `CN1CCN(C(=O)CNCc2cc(/C=N/C3CC3)ccn2)CC1` [Compound 54, 2-[({4-[N-cyclopropyl-carboximidoyl]-pyridin-2-yl}methyl)amino]-1-(4-methylpiperazin-1-yl)ethan-1-one], for which the pIC50 is below 5.60 on KDM3A (JMJD1A), 5.60 to 6.60 on KDM4A (JMJD2A) and 5.60 to 6.60 at KDM4B (JMJD2B).

`CN(C)CCNCc1cc(CNC(C#N)C2CC2)ccn1` (stereo not drawn) [Compound 21, 2-cyclopropyl-2-({[2-({[2-(dimethylamino)ethyl]-amino}methyl)pyridin-4-yl]methyl}amino)-acetonitrile]: the pIC50 at KDM3A (JMJD1A), at KDM4A (JMJD2A) and on KDM4B (JMJD2B) was below 5.60 in each case.

Regarding `CN(C)C(=O)CNCc1cc(CNCCF)ccn1` [Compound 14, 2-{[(4-{[(2-fluoroethyl)amino]-methyl}pyridin-2-yl)methyl]amino}-N,N-dimethylacetamide], the results for the pIC50 at KDM3A (JMJD1A), at KDM4A (JMJD2A) and at KDM4B (JMJD2B) were below 5.60, below 5.60 and 5.60 to 6.60, respectively.

Turning to `C#CCN(C)C(=O)CNCc1cc(/C=N/C2CC2)ccn1` [Compound 56, 2-[({4-[N-cyclopropyl-carboximidoyl]-pyridin-2-yl}methyl)amino]-N-methyl-N-(prop-2-yn-1-yl)acetamide], the pIC50 was below 5.60 on KDM3A (JMJD1A), 5.60 to 6.60 at KDM4A (JMJD2A) and 5.60 to 6.60 on KDM4B (JMJD2B).
